Source: ChEMBL document CHEMBL4507277

Assays:
[1] = test system: Tyrosine-protein kinase ABL1 (Homo sapiens), P00519 [M351T]; conditions: Compound concentration 1000.0 nM
[2] = biological target: Tyrosine-protein kinase ABL2 (Homo sapiens) (UniProt P42684); conditions: Compound concentration 1000.0 nM
[3] = biological target: Mitogen-activated protein kinase kinase kinase 5 (Homo sapiens) (UniProt Q99683); conditions: Compound concentration 1000.0 nM
[4] = biological target: Aurora kinase C (Homo sapiens) (UniProt Q9UQB9); conditions: Compound concentration 1000.0 nM
[5] = biological target: Bone morphogenetic protein receptor type-1A (Homo sapiens) (UniProt P36894); conditions: Compound concentration 1000.0 nM
[6] = biological target: Serine/threonine-protein kinase BRSK1 (Homo sapiens) (UniProt Q8TDC3); conditions: Compound concentration 1000.0 nM
[7] = biological target: Serine/threonine-protein kinase BRSK2 (Homo sapiens) (UniProt Q8IWQ3); conditions: Compound concentration 1000.0 nM
[8] = biological target: Mitotic checkpoint serine/threonine-protein kinase BUB1 (Homo sapiens) (UniProt O43683); conditions: Compound concentration 1000.0 nM
[9] = biological target: Calcium/calmodulin-dependent protein kinase type 1D (Homo sapiens) (UniProt Q8IU85); conditions: Compound concentration 1000.0 nM
[10] = biological target: Cyclin-dependent kinase 11B (Homo sapiens) (UniProt P21127); conditions: Compound concentration 1000.0 nM
[11] = biological target: Cyclin-dependent kinase 9 (Homo sapiens) (UniProt P50750); conditions: Compound concentration 1000.0 nM
[12] = biological target: Casein kinase I isoform alpha (Homo sapiens) (UniProt P48729); conditions: Compound concentration 1000.0 nM
[13] = biological target: Casein kinase I isoform gamma-1 (Homo sapiens) (UniProt Q9HCP0); conditions: Compound concentration 1000.0 nM
[14] = biological target: Casein kinase I isoform gamma-2 (Homo sapiens) (UniProt P78368); conditions: Compound concentration 1000.0 nM
[15] = biological target: Epidermal growth factor receptor (Homo sapiens) (UniProt P00533); conditions: Compound concentration 1000.0 nM
[16] = test system: Epidermal growth factor receptor (Homo sapiens), P00533 [UNDEFINED MUTATION]; conditions: Compound concentration 1000.0 nM
Chain of Epidermal growth factor receptor (Homo sapiens), P00533 [UNDEFINED MUTATION] (P00533 whole entry, looked up, change not shown): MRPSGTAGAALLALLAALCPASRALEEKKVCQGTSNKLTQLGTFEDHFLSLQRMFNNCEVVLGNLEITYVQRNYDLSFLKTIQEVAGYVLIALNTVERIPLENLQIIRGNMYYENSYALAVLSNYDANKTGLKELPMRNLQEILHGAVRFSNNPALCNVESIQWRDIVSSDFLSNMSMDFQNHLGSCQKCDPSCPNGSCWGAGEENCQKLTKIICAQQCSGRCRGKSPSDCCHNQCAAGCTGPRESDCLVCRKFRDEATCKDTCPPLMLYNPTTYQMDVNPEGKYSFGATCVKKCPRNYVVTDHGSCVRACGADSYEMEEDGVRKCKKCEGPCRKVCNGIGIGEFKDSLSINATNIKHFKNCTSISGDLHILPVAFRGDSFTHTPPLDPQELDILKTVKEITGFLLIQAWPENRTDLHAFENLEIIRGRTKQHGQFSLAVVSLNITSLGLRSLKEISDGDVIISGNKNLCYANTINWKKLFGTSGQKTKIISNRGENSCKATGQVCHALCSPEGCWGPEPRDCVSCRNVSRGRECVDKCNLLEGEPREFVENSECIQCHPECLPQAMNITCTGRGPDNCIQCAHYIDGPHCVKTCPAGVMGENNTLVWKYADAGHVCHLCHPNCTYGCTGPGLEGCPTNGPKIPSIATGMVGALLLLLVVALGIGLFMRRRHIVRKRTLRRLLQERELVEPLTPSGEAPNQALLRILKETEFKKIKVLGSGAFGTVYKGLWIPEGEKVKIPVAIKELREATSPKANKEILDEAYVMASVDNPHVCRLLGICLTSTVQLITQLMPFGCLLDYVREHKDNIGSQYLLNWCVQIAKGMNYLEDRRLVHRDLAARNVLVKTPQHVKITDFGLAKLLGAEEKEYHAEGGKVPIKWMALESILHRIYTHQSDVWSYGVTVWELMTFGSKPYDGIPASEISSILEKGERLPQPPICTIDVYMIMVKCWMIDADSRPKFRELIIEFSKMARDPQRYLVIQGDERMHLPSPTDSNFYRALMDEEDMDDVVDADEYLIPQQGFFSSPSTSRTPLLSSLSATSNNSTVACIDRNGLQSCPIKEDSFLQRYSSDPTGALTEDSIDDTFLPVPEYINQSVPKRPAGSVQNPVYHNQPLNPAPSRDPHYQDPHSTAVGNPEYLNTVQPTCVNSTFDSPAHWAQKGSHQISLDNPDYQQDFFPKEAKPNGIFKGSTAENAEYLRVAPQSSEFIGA

[17] = test system: Epidermal growth factor receptor (Homo sapiens), P00533 [UNDEFINED MUTATION]; conditions: Compound concentration 1000.0 nM; remark: listed apart in the source
[18] = biological target: Ephrin type-A receptor 1 (Homo sapiens) (UniProt P21709); conditions: Compound concentration 1000.0 nM
[19] = biological target: Ephrin type-A receptor 7 (Homo sapiens) (UniProt Q15375); conditions: Compound concentration 1000.0 nM
[20] = biological target: Beta-adrenergic receptor kinase 1 (Homo sapiens) (UniProt P25098); conditions: Compound concentration 1000.0 nM
[21] = test system: Mast/stem cell growth factor receptor Kit (Homo sapiens), P10721 [D816H]; conditions: Compound concentration 1000.0 nM
[22] = biological target: Mitogen-activated protein kinase kinase kinase 4 (Homo sapiens) (UniProt Q9Y6R4); conditions: Compound concentration 1000.0 nM
[23] = biological target: Mitogen-activated protein kinase kinase kinase kinase 3 (Homo sapiens) (UniProt Q8IVH8); conditions: Compound concentration 1000.0 nM
Chain of Mitogen-activated protein kinase kinase kinase kinase 3 (Homo sapiens) (Q8IVH8 whole entry): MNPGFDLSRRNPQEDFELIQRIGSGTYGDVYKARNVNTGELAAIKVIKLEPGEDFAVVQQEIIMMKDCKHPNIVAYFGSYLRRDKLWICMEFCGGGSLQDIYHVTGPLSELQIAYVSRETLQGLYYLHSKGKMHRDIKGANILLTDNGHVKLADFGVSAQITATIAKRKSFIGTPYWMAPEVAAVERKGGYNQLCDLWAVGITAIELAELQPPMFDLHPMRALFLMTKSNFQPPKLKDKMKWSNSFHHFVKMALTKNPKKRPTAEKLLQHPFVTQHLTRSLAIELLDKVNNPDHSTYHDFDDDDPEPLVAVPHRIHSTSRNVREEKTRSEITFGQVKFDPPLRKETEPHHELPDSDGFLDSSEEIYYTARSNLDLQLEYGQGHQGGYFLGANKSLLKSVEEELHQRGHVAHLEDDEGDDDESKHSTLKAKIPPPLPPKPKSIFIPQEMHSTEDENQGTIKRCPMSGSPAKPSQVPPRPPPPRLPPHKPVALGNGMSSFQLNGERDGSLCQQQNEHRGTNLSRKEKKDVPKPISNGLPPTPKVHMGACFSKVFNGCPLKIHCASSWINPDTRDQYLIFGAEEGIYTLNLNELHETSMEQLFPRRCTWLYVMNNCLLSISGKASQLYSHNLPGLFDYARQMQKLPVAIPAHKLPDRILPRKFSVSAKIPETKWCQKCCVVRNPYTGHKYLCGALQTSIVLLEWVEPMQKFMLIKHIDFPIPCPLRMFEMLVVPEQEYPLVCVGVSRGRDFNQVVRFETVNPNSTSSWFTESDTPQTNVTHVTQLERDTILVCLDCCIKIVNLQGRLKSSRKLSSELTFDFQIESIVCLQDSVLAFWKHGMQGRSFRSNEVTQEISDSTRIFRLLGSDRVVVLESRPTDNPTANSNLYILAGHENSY

[24] = biological target: MAP/microtubule affinity-regulating kinase 4 (Homo sapiens) (UniProt Q96L34); conditions: Compound concentration 1000.0 nM
Chain of MAP/microtubule affinity-regulating kinase 4 (Homo sapiens) (Q96L34 whole entry): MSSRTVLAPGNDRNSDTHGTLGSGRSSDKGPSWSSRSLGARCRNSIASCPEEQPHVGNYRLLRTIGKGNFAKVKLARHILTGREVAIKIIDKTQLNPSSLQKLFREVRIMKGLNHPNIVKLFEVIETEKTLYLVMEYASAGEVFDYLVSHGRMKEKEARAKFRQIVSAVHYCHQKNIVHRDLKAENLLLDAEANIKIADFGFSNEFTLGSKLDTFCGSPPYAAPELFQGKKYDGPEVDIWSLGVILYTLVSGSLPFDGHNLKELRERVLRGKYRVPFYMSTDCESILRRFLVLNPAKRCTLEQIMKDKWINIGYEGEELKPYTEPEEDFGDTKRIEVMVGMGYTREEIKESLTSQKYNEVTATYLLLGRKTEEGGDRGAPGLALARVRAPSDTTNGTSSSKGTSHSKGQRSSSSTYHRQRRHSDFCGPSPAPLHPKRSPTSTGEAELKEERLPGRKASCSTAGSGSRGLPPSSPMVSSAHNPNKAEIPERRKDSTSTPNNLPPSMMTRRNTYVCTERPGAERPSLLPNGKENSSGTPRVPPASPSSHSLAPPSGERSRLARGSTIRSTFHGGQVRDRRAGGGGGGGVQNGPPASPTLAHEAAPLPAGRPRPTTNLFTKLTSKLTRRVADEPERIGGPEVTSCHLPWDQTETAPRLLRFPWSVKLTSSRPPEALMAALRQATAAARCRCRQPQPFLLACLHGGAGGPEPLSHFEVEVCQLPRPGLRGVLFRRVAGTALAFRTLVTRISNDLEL

[25] = biological target: Tyrosine-protein kinase Mer (Homo sapiens) (UniProt Q12866); conditions: Compound concentration 1000.0 nM
Chain of Tyrosine-protein kinase Mer (Homo sapiens) (Q12866 whole entry): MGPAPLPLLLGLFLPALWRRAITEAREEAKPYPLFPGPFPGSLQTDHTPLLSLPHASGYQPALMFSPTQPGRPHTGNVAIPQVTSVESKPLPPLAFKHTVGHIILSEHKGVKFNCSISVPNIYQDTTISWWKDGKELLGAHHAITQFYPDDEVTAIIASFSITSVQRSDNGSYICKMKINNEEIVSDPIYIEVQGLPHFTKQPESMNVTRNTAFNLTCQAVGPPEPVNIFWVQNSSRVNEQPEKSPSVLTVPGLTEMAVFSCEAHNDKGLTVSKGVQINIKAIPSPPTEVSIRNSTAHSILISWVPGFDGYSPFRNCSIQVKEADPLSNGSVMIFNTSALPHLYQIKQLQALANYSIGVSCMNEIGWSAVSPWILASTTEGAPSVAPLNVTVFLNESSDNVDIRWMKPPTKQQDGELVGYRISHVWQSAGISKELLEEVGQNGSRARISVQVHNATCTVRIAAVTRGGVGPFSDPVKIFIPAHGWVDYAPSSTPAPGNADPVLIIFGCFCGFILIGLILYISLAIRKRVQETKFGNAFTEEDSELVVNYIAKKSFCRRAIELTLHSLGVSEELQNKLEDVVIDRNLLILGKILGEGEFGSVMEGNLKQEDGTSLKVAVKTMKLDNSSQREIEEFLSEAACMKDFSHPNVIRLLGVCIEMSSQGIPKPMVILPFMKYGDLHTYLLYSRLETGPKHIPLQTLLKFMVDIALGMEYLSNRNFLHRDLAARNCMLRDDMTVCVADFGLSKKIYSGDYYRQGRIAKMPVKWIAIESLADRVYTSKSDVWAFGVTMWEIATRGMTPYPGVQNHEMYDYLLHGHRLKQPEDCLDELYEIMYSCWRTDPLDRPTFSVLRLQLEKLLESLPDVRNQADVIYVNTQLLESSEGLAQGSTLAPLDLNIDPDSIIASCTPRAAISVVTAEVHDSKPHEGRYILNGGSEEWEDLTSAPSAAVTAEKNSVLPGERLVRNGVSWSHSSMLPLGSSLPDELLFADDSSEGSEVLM

[26] = biological target: Serine/threonine-protein kinase 3 (Homo sapiens) (UniProt Q13188); conditions: Compound concentration 1000.0 nM
[27] = biological target: Myosin-IIIb (Homo sapiens) (UniProt Q8WXR4); conditions: Compound concentration 1000.0 nM
[28] = biological target: Cyclin-dependent kinase 14 (Homo sapiens) (UniProt O94921); conditions: Compound concentration 1000.0 nM
[29] = biological target: Phosphatidylinositol 4-phosphate 3-kinase C2 domain-containing subunit beta (Homo sapiens) (UniProt O00750); conditions: Compound concentration 1000.0 nM
[30] = biological target: Serine/threonine-protein kinase PLK3 (Homo sapiens) (UniProt Q9H4B4); conditions: Compound concentration 1000.0 nM
[31] = biological target: cGMP-dependent protein kinase 1 (Homo sapiens) (UniProt Q13976); conditions: Compound concentration 1000.0 nM
[32] = biological target: cGMP-dependent protein kinase 2 (Homo sapiens) (UniProt Q13237); conditions: Compound concentration 1000.0 nM
[33] = test system: Proto-oncogene tyrosine-protein kinase receptor Ret (Homo sapiens), P07949 [M918T]; conditions: Compound concentration 1000.0 nM
[34] = test system: Proto-oncogene tyrosine-protein kinase receptor Ret (Homo sapiens), P07949 [V804M]; conditions: Compound concentration 1000.0 nM
[35] = biological target: Dual specificity testis-specific protein kinase 1 (Homo sapiens) (UniProt Q15569); conditions: Compound concentration 1000.0 nM
[36] = biological target: TGF-beta receptor type-1 (Homo sapiens) (UniProt P36897); conditions: Compound concentration 1000.0 nM
[37] = biological target: Tyrosine-protein kinase receptor Tie-1 (Homo sapiens) (UniProt P35590); conditions: Compound concentration 1000.0 nM
[38] = biological target: Non-receptor tyrosine-protein kinase TNK1 (Homo sapiens) (UniProt Q13470); conditions: Compound concentration 1000.0 nM
[39] = biological target: BDNF/NT-3 growth factors receptor (Homo sapiens) (UniProt Q16620); conditions: Compound concentration 1000.0 nM
[40] = biological target: Serine/threonine-protein kinase WNK2 (Homo sapiens) (UniProt Q9Y3S1); conditions: Compound concentration 1000.0 nM
[41] = biological target: 5-hydroxytryptamine receptor 2B (Homo sapiens) (UniProt P41595); conditions: Compound concentration 10.0 uM
[42] = biological target: 5-hydroxytryptamine receptor 2C (Homo sapiens) (UniProt P28335); conditions: Compound concentration 10.0 uM
[43] = biological target: Histamine H4 receptor (Homo sapiens) (UniProt Q9H3N8); conditions: Compound concentration 10.0 uM
[44] = biological target: Muscarinic acetylcholine receptor M4 (Homo sapiens) (UniProt P08173); conditions: Compound concentration 10.0 uM
[45] = biological target: Sigma non-opioid intracellular receptor 1 (Homo sapiens) (UniProt Q99720); conditions: Compound concentration 10.0 uM

Chain of Tyrosine-protein kinase ABL2 (Homo sapiens) (P42684 whole entry): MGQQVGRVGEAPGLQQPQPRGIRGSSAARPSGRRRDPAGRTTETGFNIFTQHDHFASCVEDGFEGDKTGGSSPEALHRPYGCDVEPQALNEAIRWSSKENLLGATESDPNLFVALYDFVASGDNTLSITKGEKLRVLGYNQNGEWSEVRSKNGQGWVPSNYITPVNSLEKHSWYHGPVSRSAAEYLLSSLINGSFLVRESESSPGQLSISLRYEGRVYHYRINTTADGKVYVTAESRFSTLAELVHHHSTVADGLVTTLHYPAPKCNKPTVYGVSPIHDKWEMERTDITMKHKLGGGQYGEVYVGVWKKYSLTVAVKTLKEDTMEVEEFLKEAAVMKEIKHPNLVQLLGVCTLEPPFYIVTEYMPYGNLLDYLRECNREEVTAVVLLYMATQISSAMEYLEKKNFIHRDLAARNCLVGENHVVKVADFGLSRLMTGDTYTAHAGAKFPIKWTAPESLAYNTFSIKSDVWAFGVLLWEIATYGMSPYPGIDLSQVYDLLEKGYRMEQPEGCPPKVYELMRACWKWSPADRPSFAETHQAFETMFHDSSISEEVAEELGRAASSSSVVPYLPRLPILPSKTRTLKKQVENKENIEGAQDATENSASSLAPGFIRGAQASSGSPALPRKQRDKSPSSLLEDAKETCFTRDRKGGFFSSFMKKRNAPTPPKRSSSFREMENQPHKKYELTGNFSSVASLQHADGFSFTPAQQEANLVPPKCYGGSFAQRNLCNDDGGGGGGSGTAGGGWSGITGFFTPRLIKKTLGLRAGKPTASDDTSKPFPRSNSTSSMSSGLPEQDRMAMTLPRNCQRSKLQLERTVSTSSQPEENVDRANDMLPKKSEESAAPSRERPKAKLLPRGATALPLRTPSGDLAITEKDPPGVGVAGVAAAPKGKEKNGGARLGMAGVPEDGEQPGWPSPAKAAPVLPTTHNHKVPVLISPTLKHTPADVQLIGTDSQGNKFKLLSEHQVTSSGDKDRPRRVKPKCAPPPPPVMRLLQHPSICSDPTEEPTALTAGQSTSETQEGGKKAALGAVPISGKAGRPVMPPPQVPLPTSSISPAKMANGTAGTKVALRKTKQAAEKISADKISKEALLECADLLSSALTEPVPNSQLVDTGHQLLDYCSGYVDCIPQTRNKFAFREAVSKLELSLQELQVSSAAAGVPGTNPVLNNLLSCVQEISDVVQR

## CCS(=O)(=O)c1cc2cc(C[C@@](O)(CC(C)(C)c3ccc(F)cc3C(N)=O)C(F)(F)F)[nH]c2cn1
[1]
  residual activity: 96%
[2]
  residual activity: 88%
[3]
  residual activity: 100%
[4]
  residual activity: 81%
[5]
  residual activity: 100%
[6]
  residual activity: 73%
[7]
  residual activity: 72%
[8]
  residual activity: 66%
[9]
  residual activity: 89%
[10]
  residual activity: 77%
[11]
  residual activity: 78%
[12]
  residual activity: 86%
[13]
  residual activity: 100%
[14]
  residual activity: 95%
[15]
  residual activity: 96%
[16]
  residual activity: 94%
[17]
  residual activity: 79%
[18]
  residual activity: 99%
[19]
  residual activity: 94%
[20]
  residual activity: 50%
[21]
  residual activity: 51%
[22]
  residual activity: 93%
[23]
  residual activity: 82%
[24]
  residual activity: 100%
[25]
  residual activity: 100%
[26]
  residual activity: 100%
[27]
  residual activity: 79%
[28]
  residual activity: 100%
[29]
  residual activity: 86%
[30]
  residual activity: 99%
[31]
  residual activity: 89%
[32]
  residual activity: 86%
[33]
  residual activity: 98%
[34]
  residual activity: 74%
[35]
  residual activity: 77%
[36]
  residual activity: 100%
[37]
  residual activity: 66%
[38]
  residual activity: 100%
[39]
  residual activity: 84%
[40]
  residual activity: 46%
[41]
  inhibition: -7.85%
[42]
  inhibition: 7.33%
[43]
  inhibition: 2.05%
[44]
  inhibition: 18.2%
[45]
  inhibition: 8.26%

## CCS(=O)(=O)c1cc2cc(C[C@](O)(CC(C)(C)c3ccc(F)cc3C(N)=O)C(F)(F)F)[nH]c2cn1
[1]
  residual activity: 94%
[2]
  residual activity: 80%
[3]
  residual activity: 100%
[4]
  residual activity: 91%
[5]
  residual activity: 100%
[6]
  residual activity: 99%
[7]
  residual activity: 100%
[8]
  residual activity: 86%
[9]
  residual activity: 100%
[10]
  residual activity: 100%
[11]
  residual activity: 100%
[12]
  residual activity: 100%
[13]
  residual activity: 96%
[14]
  residual activity: 93%
[15]
  residual activity: 81%
[16]
  residual activity: 89%
[17]
  residual activity: 93%
[18]
  residual activity: 100%
[19]
  residual activity: 86%
[20]
  residual activity: 84%
[21]
  residual activity: 98%
[22]
  residual activity: 93%
[23]
  residual activity: 83%
[24]
  residual activity: 100%
[25]
  residual activity: 100%
[26]
  residual activity: 97%
[27]
  residual activity: 100%
[28]
  residual activity: 100%
[29]
  residual activity: 89%
[30]
  residual activity: 93%
[31]
  residual activity: 92%
[32]
  residual activity: 85%
[33]
  residual activity: 100%
[34]
  residual activity: 100%
[35]
  residual activity: 100%
[36]
  residual activity: 100%
[37]
  residual activity: 100%
[38]
  residual activity: 98%
[39]
  residual activity: 100%
[40]
  residual activity: 100%
[41]
  inhibition: 26.1%
[42]
  inhibition: 0.64%
[43]
  inhibition: 3.88%
[44]
  inhibition: 13.1%
[45]
  inhibition: 10.1%
